Results taken from patent publication US20260027116A1, “Methods of Treating Chronic Graft-Versus-Host Disease Following Allogeneic Hematopoietic Stem Cell Transplantation” (Kadmon Corporation, LLC, priority 2022, published 2026).

What was measured:
[1] = biological target: P-gp (Homo sapiens, UniProt P08183); assay: transporter substrate in vitro; assay type: in vitro ADME
[2] = test system: chronic graft-versus-host disease (cGVHD); assay: Example 2 phase II randomized study: response per 2014 NIH criteria (best ORR, DOR, TTR, FFS, OS); assay type: in vivo, human; conditions: for ORR / ORR for responses occurring within 6 mo of treatment / ORR for responses occurring within 12 mo of treatment: mITT
Procedure: All responses were assessed by the study site investigators.
Here, we report data from the 12-month analysis.

[3] = biological target: human serum albumin (Homo sapiens, UniProt P02768); assay: protein binding in vitro; assay type: in vitro ADME
human serum albumin, sequence (P02768 25-609): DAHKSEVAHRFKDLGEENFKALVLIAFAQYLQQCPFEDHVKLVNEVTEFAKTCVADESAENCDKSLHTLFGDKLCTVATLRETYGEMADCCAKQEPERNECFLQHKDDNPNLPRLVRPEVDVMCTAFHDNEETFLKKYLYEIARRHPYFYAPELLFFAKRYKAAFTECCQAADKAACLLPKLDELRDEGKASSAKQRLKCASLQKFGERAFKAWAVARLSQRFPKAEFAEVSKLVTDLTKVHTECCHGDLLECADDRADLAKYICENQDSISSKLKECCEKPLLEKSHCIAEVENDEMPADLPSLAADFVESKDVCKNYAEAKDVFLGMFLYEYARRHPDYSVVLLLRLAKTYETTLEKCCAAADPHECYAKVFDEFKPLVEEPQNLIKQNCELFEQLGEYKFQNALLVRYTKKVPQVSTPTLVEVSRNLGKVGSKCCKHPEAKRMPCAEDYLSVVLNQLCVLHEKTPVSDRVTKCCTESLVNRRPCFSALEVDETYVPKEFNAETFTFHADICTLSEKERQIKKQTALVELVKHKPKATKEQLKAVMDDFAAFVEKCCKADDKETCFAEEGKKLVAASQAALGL

[4] = biological target: CYP2C19 (Homo sapiens, UniProt P33261); assay: enzyme inhibition in vitro; assay type: in vitro ADME
CYP2C19, sequence (P33261 whole entry): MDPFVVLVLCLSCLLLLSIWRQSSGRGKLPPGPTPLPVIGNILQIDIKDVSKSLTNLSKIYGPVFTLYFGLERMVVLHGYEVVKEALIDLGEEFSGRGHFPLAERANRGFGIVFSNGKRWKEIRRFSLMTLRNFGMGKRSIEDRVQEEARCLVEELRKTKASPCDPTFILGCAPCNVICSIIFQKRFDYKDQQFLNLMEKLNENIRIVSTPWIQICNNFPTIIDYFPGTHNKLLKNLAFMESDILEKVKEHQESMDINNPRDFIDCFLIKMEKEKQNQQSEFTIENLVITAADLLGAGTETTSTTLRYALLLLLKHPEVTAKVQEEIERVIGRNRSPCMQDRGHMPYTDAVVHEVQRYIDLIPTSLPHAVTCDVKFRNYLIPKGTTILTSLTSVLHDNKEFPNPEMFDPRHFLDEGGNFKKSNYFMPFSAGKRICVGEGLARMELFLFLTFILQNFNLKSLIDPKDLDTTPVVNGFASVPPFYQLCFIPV

[5] = pharmacokinetics in healthy subjects (bioavailability, food effect, distribution, excretion); assay type: in vivo, human
[6] = responses within 6 mo of treatment, 200 mg daily (n = 66)
[7] = responses within 6 mo of treatment, 200 mg twice daily (n = 66)
[8] = responses within 6 mo of treatment, Total (N = 132)
[9] = responses within 12 mo of treatment, 200 mg daily (n = 66)
[10] = responses within 12 mo of treatment, 200 mg twice daily (n = 66)
[11] = responses within 12 mo of treatment, Total (N = 132)

P-gp, sequence (P08183 whole entry): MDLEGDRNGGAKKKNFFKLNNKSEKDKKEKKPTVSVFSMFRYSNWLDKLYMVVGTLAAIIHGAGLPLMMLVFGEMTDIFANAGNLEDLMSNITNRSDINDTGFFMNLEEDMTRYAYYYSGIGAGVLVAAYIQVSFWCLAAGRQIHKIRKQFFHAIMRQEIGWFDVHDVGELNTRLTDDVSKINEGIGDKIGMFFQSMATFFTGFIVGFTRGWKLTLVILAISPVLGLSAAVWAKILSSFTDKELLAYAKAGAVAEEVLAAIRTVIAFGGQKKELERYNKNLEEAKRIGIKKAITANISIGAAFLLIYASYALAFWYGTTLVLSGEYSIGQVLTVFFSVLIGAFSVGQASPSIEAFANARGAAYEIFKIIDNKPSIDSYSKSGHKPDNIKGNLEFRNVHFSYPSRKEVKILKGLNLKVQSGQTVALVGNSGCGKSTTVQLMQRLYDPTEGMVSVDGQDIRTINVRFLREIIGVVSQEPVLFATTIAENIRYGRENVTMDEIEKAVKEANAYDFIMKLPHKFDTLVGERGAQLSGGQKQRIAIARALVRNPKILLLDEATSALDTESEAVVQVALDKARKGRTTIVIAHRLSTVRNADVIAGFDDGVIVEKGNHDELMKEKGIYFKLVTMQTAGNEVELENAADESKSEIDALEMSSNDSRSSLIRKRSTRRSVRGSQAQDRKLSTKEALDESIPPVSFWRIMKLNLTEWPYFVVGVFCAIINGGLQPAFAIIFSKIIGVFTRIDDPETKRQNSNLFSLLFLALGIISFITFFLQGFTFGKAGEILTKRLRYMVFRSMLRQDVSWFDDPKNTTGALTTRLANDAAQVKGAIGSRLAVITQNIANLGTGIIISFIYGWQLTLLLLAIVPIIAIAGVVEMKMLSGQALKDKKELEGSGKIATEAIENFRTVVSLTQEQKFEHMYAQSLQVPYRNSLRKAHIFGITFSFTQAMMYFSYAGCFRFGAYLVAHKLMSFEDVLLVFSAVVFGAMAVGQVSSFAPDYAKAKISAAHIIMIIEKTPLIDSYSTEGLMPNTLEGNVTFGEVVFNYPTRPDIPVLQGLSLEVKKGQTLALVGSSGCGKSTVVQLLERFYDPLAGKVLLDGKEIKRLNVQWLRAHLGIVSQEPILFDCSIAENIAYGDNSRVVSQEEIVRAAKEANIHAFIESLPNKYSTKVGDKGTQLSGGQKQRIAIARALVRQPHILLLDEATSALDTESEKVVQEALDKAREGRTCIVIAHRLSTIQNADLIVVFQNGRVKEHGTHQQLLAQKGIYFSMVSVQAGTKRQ

## CC(C)NC(=O)COc1cccc(-c2nc(Nc3ccc4[nH]ncc4c3)c3ccccc3n2)c1 [Belumosudil, 2-{3-[4-(1H-indazol-5-ylamino)-2-quinazolinyl]phenoxy}-N-(propan-2-yl) acetamide]
[1]
  P-gp substrate: substrate of P-gp
[2]; 200 mg BID
  CR, Esophagus: 5 (42) n (%)
  CR, Eyes: 6 (12) n (%)
  CR, Joints and fascia: 10 (20) n (%)
  CR, Liver: 2 (50) n (%)
  CR, Lower GI: 4 (57) n (%)
  CR, Lungs: 2 (9) n (%)
  CR, Mouth: 17 (41) n (%)
  CR, Skin: 10 (18) n (%)
  CR, Upper GI: 4 (40) n (%)
  ORR, Esophagus: 5 (42) n (%)
  ORR, Eyes: 25 (51) n (%)
  ORR, Joints and fascia: 33 (67) n (%)
  ORR, Liver: 2 (50) n (%)
  ORR, Lower GI: 5 (71) n (%)
  ORR, Lungs: 5 (22) n (%)
  ORR, Mouth: 24 (57) n (%)
  ORR, Skin: 23 (42) n (%)
  ORR, Upper GI: 4 (40) n (%)
  PR, Esophagus: 0 n (%)
  PR, Eyes: 19 (39) n (%)
  PR, Joints and fascia: 23 (47) n (%)
  PR, Liver: 0 n (%)
  PR, Lower GI: 1 (14) n (%)
  PR, Lungs: 3 (13) n (%)
  PR, Mouth: 7 (17) n (%)
  PR, Skin: 13 (24) n (%)
  PR, Upper GI: 0 n (%)
[2]; 200 mg QD
  CR, Esophagus: 9 (47) n (%)
  CR, Eyes: 8 (17) n (%)
  CR, Joints and fascia: 10 (20) n (%)
  CR, Liver: 2 (22) n (%)
  CR, Lower GI: 4 (67) n (%)
  CR, Lungs: 4 (17) n (%)
  CR, Mouth: 15 (50) n (%)
  CR, Skin: 8 (15) n (%)
  CR, Upper GI: 7 (54) n (%)
  ORR, Esophagus: 9 (47) n (%)
  ORR, Eyes: 16 (33) n (%)
  ORR, Joints and fascia: 38 (75) n (%)
  ORR, Liver: 3 (33) n (%)
  ORR, Lower GI: 4 (67) n (%)
  ORR, Lungs: 7 (29) n (%)
  ORR, Mouth: 16 (53) n (%)
  ORR, Skin: 18 (33) n (%)
  ORR, Upper GI: 8 (62) n (%)
  PR, Esophagus: 0 n (%)
  PR, Eyes: 8 (17) n (%)
  PR, Joints and fascia: 28 (55) n (%)
  PR, Liver: 1 (11) n (%)
  PR, Lower GI: 0 n (%)
  PR, Lungs: 3 (13) n (%)
  PR, Mouth: 1 (3) n (%)
  PR, Skin: 10 (18) n (%)
  PR, Upper GI: 1 (8) n (%)
[2]; 200 mg daily (n = 66)
  FFS at 6 mo (95% CI): 73 (61-83) %
  FFS at 12 mo (95% CI): 57 (44-68) %
  ORR: 49 (74) n (%)
  ORR for responses occurring within 6 mo of treatment: 47 (71) n (%)
  ORR for responses occurring within 12 mo of treatment: 49 (74) n (%)
[2]; 200 mg twice daily (n = 66)
  FFS at 6 mo (95% CI): 76 (63-84) %
  FFS at 12 mo (95% CI): 56 (43-67) %
  ORR: 51 (77) n (%)
  ORR for responses occurring within 6 mo of treatment: 48 (73) n (%)
  ORR for responses occurring within 12 mo of treatment: 50 (76) n (%)
[2]; Example 2
  2-year OS rate: 89%
  additional lung CRs based on NIH lung symptom score 1 to 0: 3 subjects
  best ORR in subjects refractory to their last lines of therapy: 75%
  initiation of a new systemic cGVHD therapy (failure event): 38%
  lung CR based on normalization of FEV1: 3 subjects
  median FEV1 increase for all subjects achieving lung PR: 10%
  median FEV1 increase in lung CR subjects: 23%
  nonrelapse mortality (NRM): 7%
  overall median time to response: 5 weeks
  relapse: 3%
  responses seen after 6 to 12 months of treatment: 9%
  skin responders with decrease in body surface area involvement: 15 subjects
  skin responders with decrease in sclerotic features: 11 subjects
  skin responders with improvement in both body surface area and sclerotic features: 13 subjects
  subjects with lung responses: 12 subjects
  subjects with skin responses: 41 subjects
[2]; Example 2, 200 mg daily
  best ORR: 74%
[2]; Example 2, 200 mg twice daily
  best ORR: 77%
[2]; Example 2, at 6 months
  overall FFS rate: 75%
[2]; Example 2, at 12 months
  overall FFS rate: 56%
[2]; Example 2, mITT
  ORRs in all subgroups: 61-85%
  best ORR in the esophagus: 45%
  best ORR in the eyes: 42%
  best ORR in the joints/fascia: 71%
  best ORR in the liver: 39%
  best ORR in the lower GI tract: 69%
  best ORR in the lungs: 26%
  best ORR in the mouth: 55%
  best ORR in the skin: 37%
  best ORR in the upper GI tract: 52%
[2]; Example 2, pooled arms
  ORR, subgroup with prior ibrutinib therapy: 74%
  ORR, subgroup with prior ruxolitinib therapy: 68%
[2]; Example 2, responder population
  median DOR: 54 weeks
[2]; Total
  CR, Esophagus: 14 (45) n (%)
  CR, Eyes: 14 (14) n (%)
  CR, Joints and fascia: 20 (20) n (%)
  CR, Liver: 4 (31) n (%)
  CR, Lower GI: 8 (62) n (%)
  CR, Lungs: 6 (13) n (%)
  CR, Mouth: 32 (44) n (%)
  CR, Skin: 18 (16) n (%)
  CR, Upper GI: 11 (48) n (%)
  ORR, Esophagus: 14 (45) n (%)
  ORR, Eyes: 41 (42) n (%)
  ORR, Joints and fascia: 71 (71) n (%)
  ORR, Liver: 5 (39) n (%)
  ORR, Lower GI: 9 (69) n (%)
  ORR, Lungs: 12 (26) n (%)
  ORR, Mouth: 40 (56) n (%)
  ORR, Skin: 41 (37) n (%)
  ORR, Upper GI: 12 (52) n (%)
  PR, Esophagus: 0 n (%)
  PR, Eyes: 27 (28) n (%)
  PR, Joints and fascia: 51 (51) n (%)
  PR, Liver: 1 (8) n (%)
  PR, Lower GI: 1 (8) n (%)
  PR, Lungs: 6 (13) n (%)
  PR, Mouth: 8 (11) n (%)
  PR, Skin: 23 (21) n (%)
  PR, Upper GI: 1 (4) n (%)
[2]; Total (N = 132)
  FFS at 6 mo (95% CI): 75 (66-81) %
  FFS at 12 mo (95% CI): 56 (47-64) %
  ORR: 100 (76) n (%)
  ORR for responses occurring within 6 mo of treatment: 95 (72) n (%)
  ORR for responses occurring within 12 mo of treatment: 99 (75) n (%)
[2]; [6]
  CR: 2 (3) n (%)
  PR: 45 (68) n (%)
[2]; [7]
  CR: 1 (2) n (%)
  PR: 47 (71) n (%)
[2]; [8]
  CR: 3 (2) n (%)
  PR: 92 (70) n (%)
[2]; [9]
  CR: 4 (6) n (%)
  PR: 45 (68) n (%)
[2]; [10]
  CR: 2 (3) n (%)
  PR: 48 (73) n (%)
[2]; [11]
  CR: 6 (5) n (%)
  PR: 93 (71) n (%)
[3]
  binding to human serum albumin: 99.9%
[4]
  inhibition of CYP2C19: inhibitor
[5]; high-fat high-calorie meal vs fasted
  food effect, Cmax increase: 2.2 times
[5]; single oral radiolabeled dose
  radioactivity recovered in feces: 85%
  radioactivity recovered in urine: less than 5%
  recovered in feces as unchanged: 30%
